Laboratory results taken from patent US8114895B2, “Use of bipyridine compound ‘Caerulomycin A’ derivatives and analogs thereof as immunosuppressive agents” (Council of Science and Industrial Research, priority 2005, dated 2012).
Read-outs that look alike come from different tables or passages of the source.

How the values were obtained:
[1] = system: naïve CD4^+ T cells; assay: Proliferation of naïve CD4+ T cells; assay type: cell-based
Experimental: Examples establishing the role of Caerulomycin A [isolated from a novel species of Actinoalloteichus] in inducing immunosuppression based on the following: • Splenocytes of BALB/c mice were stimulated with either ConA (1 μg/ml and 2 μg/ml) or LPS (5 μg/ml and 10 μg/ml) and were cultured with different concentrations of Caerulomycin A (0.0003-0.1 μg/ml). After 48 h, the cultures were pulsed with 0.5 μCi of [^3H]-thymidine and harvested 14 h later by automatic cell harvester. Radioactivity incorporated was measured by liquid scintillation counting. • Antigen ovalbumin (100 μg/ml) emulsified in Freund's complete adjuvant was injected in a group consisting of 5 BALB/c mice. […] Radioactivity incorporated was measured by liquid scintillation. The culture supernatants were collected after 48 h and cytokines were measured by ELISA. • Immunosuppressive effect of different doses of Caerulomycin A was monitored on naïve CD4^+ T cells, antigen reactive CD4^+ T cells, Th2 clone and Th1 hybridoma. […] Radioactivity incorporated was measured by liquid scintillation. • Immunosuppressive effect of Caerulomycin A on MLR reaction. […] After 4 days, the cultures were pulsed with 1 μCi of [^3H]-thymidine and harvested 16 h later and radioactivity incorporated was measured by liquid scintillation counting. • In vivo immunosuppressive effect of Caerulomycin A on the proliferation of T cells. […]

[2] = system: Th2 clones; assay: Kinetics of the effect on the proliferation of Th2 clones; assay type: cell-based; details: anti-CD3 Ab 0.5 μg/ml, read-out: inhibitory effect on Th2 cells
Experimental: Th2 clones (5×10^4/well) were stimulated with anti-CD3 Ab (0.5 μg/ml). Caerulomycin A (0.05 μg/ml) was added either at the initiation of the cultures (time 0) or at various time points (4 h-48 h) After 48 h of the cultures, [^3H]-thymidine was added, and its incorporation was measured 12 h later.

[3] = system: Th1 cells (3DO.54.8); assay: Proliferation of Th1 cells; assay type: cell-based; details: anti-CD3 Ab 10 μg/ml; 24 h
Experimental: Th1 cells (1×10^4 cells/well) were stimulated with anti-CD3 Ab (10 μg/ml) and different doses Caerulomycin A. After 24 h, [^3H]-thymidine was added, and its incorporation was measured 8 h later.

[4] = system: OVA-specific T cells; assay: Cytokine secretion by OVA-primed splenocytes (ELISA); assay type: cell-based, BALB/c mice; details: OVA 200 μg/ml, supernatants after 48 h
Experimental: OVA (2 mg/ml) was dissolved in PBS (0.01 M, pH 7.2) and emulsified in Freund's complete adjuvant (FCA). Emulsion (100 μl) was then injected intraperitoneally in a group consisting of 5 BALB/c mice. The control group was injected with PBS alone. After seven days, mice were sacrificed and splenocytes were pooled and used for proliferation and cytokine assays. Splenocytes (5×10^5 cells/well) were cultured with OVA (200 μg/ml) in 200 μl RPMI/FCS-10% medium and with various concentrations of Caerulomycin A (0.0003-0.1 μg/ml). The control cultures consisting of splenocytes incubated with different concentrations of Caerulomycin A (no OVA), OVA and medium were also kept. The culture supernatants were collected after 48 h and cytokines were measured by ELISA.

With COc1cc(/C=N/O)nc(-c2ccccn2)c1 [Caerulomycin A, (E)-4-methoxy-2,2′-bipyridine-6-carbaldehyde oxime] the “in vitro proliferation of naïve CD4+ T cells” value [1] was “suppression”, the inhibition at 0.05 µg/mL ([2]; 0.05 μg/ml added after 42 h) was 56% and the inhibition at 0.05 µg/mL ([2]; 0.05 μg/ml added before 16 h of the initiation of the cultures) was 77 to 90%. The “proliferation of Th1 cells” value [3] was “inhibited the proliferation”, the “secretion of IFN-γ” value ([4]; Caerulomycin A 0.05-0.1 μg/ml) was “significantly suppressed the secretion” and the “production of IL-10” value [4] was “failed to induce any change”.
